In patent US20090143484A1, “USE OF GARLIC OIL TO INCREASE BIOAVAILABILITY OF COENZYME Q-10” (priority 2007, published 2009):

Experiments:
Human LDL = assay: Prevention of LDL oxidation (CuSO4-initiated conjugated diene formation at 234 nm); format: biochemical; settings: LDL 0.1 mg/ml
Experimental: Human LDL were obtained by ultracentrifugation from fresh human blood, followed by dialysis against in 10 mM PBS (pH 7.4) at 4° C. in the dark for 24 h. LDL (0.1 mg/ml) were mixed with different amounts of active constituents. Reaction was initiated by adding a solution of CuSO4 (10 μM); samples were then incubated at 37° C. for 22 h. The formation of conjugated diene was measured at 234 nm using a Hewlett-Packard spectrophotometer (Agilent, Palo Alto).
Data evaluation was performed by comparison of the slope of increase in diene-formation. The steepest slope (i.e. without addition of anti-oxidants) was set to 100%. Results are given as relative %.
The lag-time until start of diene formation was estimated from the kinetic curves obtained. Results are given in minutes.

[1] = system: Caco-2 HTB-37 (human colon adenocarinoma); assay: Absorption testing using Caco-2 cells (cellular uptake of CoQ10, HPLC); format: in vitro ADME; settings: 37° C., up to 2 h
Experimental: Caco-2 HTB-37 (human colon adenocarinoma), obtained from ATCC, were cultured in DMEM (Dulbecco/Vogt modified Eagle's minimal essential medium) containing 20% FCS (Fetal Calf Serum), 1% nonessential amino acids, 0.83 mM L-glutamine and 1% penicillin-streptomycin at 37° C. in a humified atmosphere of CO2. Cells were grown in 75 cm^2 culture-flasks (T75) and their medium was replaced every third day. As soon as confluency was reached—once a week—they were split using trypsin.
After discarding the old medium, the monolayer was washed with 10 mL PBS. Subsequently, 3 mL trypsin was added in order to detach the cells. […]
The remaining 9 mL cell-suspension was used for experiments and was therefore transferred into a 15 mL falcon. After the cells had been counted by using a Neubauer-chamber, cells were seeded into 6 Well Thin Certs and 6 Wells at a density of 3×10^5 and 6.76×10^5, respectively. […]
The optimum amount of the emulsifier lecithin had to be determined individually for each sample. […]
A reversed-phase column (Spherimage-80) with 5 μm pore size and […] was used. […] Coenzyme Q10 (oxidized and reduced) were monitored at 275 nm.
CoQ10 was determined in the media (outside the cells) and in the cells. Both, oxidized and reduced CoQ10, were quantified. […]

COC1=C(OC)C(=O)C(C/C=C(\C)CC/C=C(\C)CC/C=C(\C)CC/C=C(\C)CC/C=C(\C)CC/C=C(\C)CC/C=C(\C)CC/C=C(\C)CC/C=C(\C)CCC=C(C)C)=C(C)C1=O [CoQ10]
Inhibition (Human LDL; 0.1 mg/mL of CoQ10): 13% | Residual activity (Human LDL; 0.1 mg/mL of CoQ10): 87% | Inhibition (Human LDL; 1 mg/mL of CoQ10): 43% | Residual activity (Human LDL; 1 mg/mL of CoQ10): 57% | Inhibition (Human LDL; 1 mg/mL of CoQ10, listed as CoQ-10): about 43% | Inhibition (Human LDL; 10 mg/mL of CoQ10): 68% | Residual activity (Human LDL; 10 mg/mL of CoQ10): 32% | Lag Time (Human LDL; lag time to start of LDL-oxidation, Co Q10 1 mg/mL): 146 min | content of CoQ10 in the media during the incubation conditions [1]: stable
